Type in all cases: physicochemical
The nature of series [1]: Dynamic vapor sorption (DVS). The following applies: range 0% RH-95% RH. The source says:
Crystalline form beta of lanifibranor is also characterized by its dynamic vapor sorption (DVS). […] In some embodiments, the DVS isotherm plot of crystalline form beta of lanifibranor is substantially in accordance with FIG. 4.

Series [2] can be described thus: Angle of repose (powder flow, Electrolab EFT-01). The following applies: 50 g of powder through an orifice of 25 mm; rounded average of three experiments. As to the method:
Powder flow and the angle of repose were determined using an Electrolab EFT-01 apparatus. In a first step, powder flow is measured through various orifices (10, 15 and 25 mm). In a second step, the angle of repose is measured by the height of the cone formed by a sample of 50 g of powder passing through an orifice of 25 mm. The result obtained in the rounded average of three experiments.

Series [3] can be described thus: Thermogravimetry (TGA). As to conditions: temperature range 25-200° C. As to the method: Crystalline form beta of lanifibranor is also characterized by its thermogravimetry (TGA) curve. […] Above 250° C., the weight loss observed likely corresponds to degradation. In some embodiments, said TGA curve is substantially in accordance with FIG. 3.
The nature of series [4]: Compressibility index and Hausner ratio from bulk and tapped density (Electrolab ETD-1020). How it is done: The compressibility index and Hausner ratio were determined using an Electrolab ETD-1020 apparatus using measured values of bulk density (ρbulk) and tapped density (ρtapped) as follows: [formula] [formula]

The results in this text go back to US20260193246A1, “METHOD OF MAKING LANIFIBRANOR” (INVENTIVA, priority 2023, published 2026).

Molecules are shown by their SMILES.

For the compound `O=C(O)CCCc1cc2cc(Cl)ccc2n1S(=O)(=O)c1ccc2ncsc2c1` [crystalline form beta of lanifibranor, 1-(6-benzothiazolylsulfonyl)-5-chloro-1H-indole-2-butanoic acid], in series [1], the “maximum uptake (weight variation, DVS)” value is recorded as “+0.1%”. Moreover, in series [2], the angle of repose was found to be 35 °. The “weight loss (TGA)” value in series [3] is on record as “does not highlight any significant weight loss”. In addition, in series [4], the Hausner ratio is on record as 1.26 and the compressibility index is 20.64.
